Assay results from patent US12416008B2, “Compositions and methods of use for small-molecule regulation of CRISPR-Cas9 activity using RNA aptamers” (priority 2019, dated 2025).
Marks after values point to notes of the source that are not given here.

Key:
[1] = system: galK (site 1) and xylA (site 2); test: multiplexed gene editing with theophylline-regulated GU19-agRNA and 3MX-regulated A9-agRNA on one plasmid; format: cell-based, E. coli; settings: 3-hour induction with 1 mM of a single ligand
Experimental: A plasmid was designed that expressed a theophylline-regulated GU19-agRNA targeting galK1 and a 3-methylxanthine (3MX)-regulated A9-agRNA targeting the xylA gene. […] The plasmid construct was then used for a 3-hour induction with either 1 mM theophylline, 1 mM 3MX or a combination of the two and the transformed bacteria were plated on MacConkey agar that contained either galactose, xylose or both to assay editing of the galK and xylA genes with the red/white screen (FIG. 3D, FIG. 11).
For the purpose of first adding theophylline and later 3MX to independently induce two different agRNAs, the protocol was slightly modified. First, the bacteria were prepared and transformed as in the original protocol, 1 mM theophylline was added to the media and the culture was shaken at 30° C. for three hours. Then, the culture was heat-shocked again at 42° C. for 15 minutes to induce expression of the lambda-red proteins again and 1 mM 3MX was added to the media. The culture was shaken at 37° C. for three hours and then plated.

[2] = molecular target: isolated aptamer (theophylline aptamer); settings: theophylline binding; cited from earlier work
galK 1 site [3] = test: red/white colony screen of editing efficiency at the galK 1 site (CREATE recombineering); format: cell-based, E. coli MG1655; settings: galK1 site; agRNAs A9 and GU19 (FIG. 2A)
[4] = molecular target: T1, Streptococcus pyogenes Cas9 (Streptococcus pyogenes serotype M1, UniProt Q99ZW2); test: electrophoretic mobility shift assay (EMSA) of Cas9 binding to gRNAs; settings: presence or absence of 250 μM theophylline
T1 construct: host or cells: E. coli BL21 (DE3) Rosetta

galK 1 site [5] = test: red/white colony screen of editing efficiency at the galK 1 site (CREATE recombineering); format: cell-based, E. coli MG1655; settings: for Editing Efficiency 1 mM Theo: induced for 3 hours with 1 mM theophylline; for Editing Efficiency no Theo: no theophylline, 3 hours recovery
Experimental: Candidates from this enriched library were analyzed to inform an improved library design. After three selection/counterselection steps, cells were plated on M63 selection medium^20 and 150 colonies were picked. Each isolated candidate was then transformed into unedited E. coli to screen for theophylline-responsive constructs using a red/white colony assay to quantify the percentage of edited bacteria. Colonies with an unedited galK site appear red whereas edited colonies appear white (FIG. 5). The percentage of white colonies is considered the editing efficiency. Gene editing was induced as previously described with or without adding theophylline and the editing efficiencies were compared.
The protocol established by Garst et al was mainly followed. LB containing kanamycin and chloramphenicol was inoculated with MGλ9 cells and grown overnight at 30° C. The stationary culture was diluted 100 fold in LB, containing chloramphenicol, kanamycin and 0.2% arabinose and grown to an OD600=0.4-0.6 in 25 mL LB. The culture was heat-shocked in a shaking waterbath at 42° C. for 15 minutes to induce expression of the lambda-red proteins from pSIM5. Then, the culture was washed in two volumes of ice-cold deionized water, resuspended in 500 μl deionized water and 50 μl of the cell suspension was electroporated with 200 ng of a CREATE plasmid that encodes gRNA and homology template. The transformants were recovered in 4 mL of LB, containing 0.2% arabinose and optionally 1 mM theophylline or 1 μM anhydrotetracycline (ATC), and shaken at 37° C. for 3 hours before plating on MacConkey Agar. To estimate the number of cfu, aliquots were plated on LB agar 1 hour after transformation.
(§1) In order to assess the frequency of gene editing, a red/white screen was used to visualize the introduction of a stop codon into the galK gene by CREATE. The original CREATE protocol was used for inducing gene editing and after 3 hours of recovery (with or without the agRNA ligand) a series of dilutions of the cultures were plated on MacConkey Agar plates containing 1% galactose. Bacterial colonies with a mutated galK* site appear white on the plates, whereas non-edited colonies appear red. The editing efficiency could be calculated by dividing the number of edited colonies over the total number of colonies. By comparing the editing efficiency in presence versus absence of the ligand, a dynamic range of the in vivo activity could be determined.
When screening the enriched libraries for switchable constructs, the transformants were recovered in 4 mL of LB broth, a dilution series was plated for every construct and the experiment was only carried out once due to the large volume of colonies screened (˜250 in total). When the constructs A9 and GU19 were characterized in detail, triplica of the experiment were carried out.

[6] = system: alternative sites at the galK gene; test: editing at three more alternative sites at the galK gene; format: cell-based, E. coli; settings: with or without 1 mM theophylline
Experimental: (§2) Promising agRNA constructs were analyzed in further detail. […] The xylA gene was targeted with these 17 agRNAs to test whether a different spacer sequence affects the performance. Editing was quantified with the same red/white screen. […] To confirm sequence independence of those two agRNAs, they were used to edit three more alternative sites at the galK gene. […] Sequencing confirmed that the phenotypic change in the assay corresponded to a designed genomic edit (FIG. 7). The observation that a number of agRNAs only act at the selected galK1 site highlights that the CRISPR-Cas9 system can be selected to act at a single sequence, a feature that could be exploited for reducing off-target effects.
as §1, with “Bacterial colonies with a mutated galK* site appear white on the plates, whereas non-edited colonies appear red.” left out

MGλ9 strain = test: transformation and editing efficiency, agRNAs activated with theophylline 1 hour after transformation (aptamer-protocol); format: cell-based, E. coli; settings: theophylline added 1 hour after transformation; for increase in number of transformants: versus wt gRNA
Experimental: FIGS. 3A-3D show aptamer-gRNAs enable high-throughput genome editing. FIG. 3A is a schematic showing the workflow of the aptamer-controlled gene editing. […] CFUs are colony forming units μg-1 DNA and per 4 mL of recovery media. […] Each dot represents a biological replicate and error bars indicate standard deviation from the mean. FIG. 3C is a schematic of the plasmid design used to enable multiplexed gene editing. The individual homology arms and agRNAs are identical to the ones previously described for the single-edit experiments. […] The values represent the average of three biological replicates.
Equipped with temporally controllable agRNAs, the gene editing technology CREATE^10 was optimized. One major drawback of CRISPR-mediated bacterial gene editing technologies is cell death caused by dsDNA cuts^10, despite overexpression of λ-red proteins to increase the frequency of homologous repair. Without wishing to be bound by theory, it is hypothesized that the stress of transformation combined with rapid generation of dsDNA breaks synergistically leads to a high level of cell death. […] Although a low transformation efficiency is not a significant issue when creating a single edit with a defined sgRNA, it dramatically impacts the ability to transform a library of sgRNA plasmids to generate a population of bacteria with different edits. In this process, a portion of gRNAs from the library is expected to be non-functional due to errors in oligonucleotide synthesis, sgRNA misfolding, or inefficient targeting.
LB containing kanamycin and chloramphenicol was inoculated with MGλ9 cells and grown overnight at 30° C. The stationary culture was diluted 100 fold in LB, containing chloramphenicol and kanamycin and grown to an OD600=0.4-0.6 in 25 mL LB. Then, the culture was washed in two volumes of ice-cold deionized water, resuspended in 500 μl deionized water and 50 μl of the cell suspension was electroporated with 200 ng of a CREATE plasmid that encodes gRNA and homology template. The transformants were recovered in 4 mL of LB, containing 0.2% arabinose and shaken at 30° C. for 1 hour. The culture was heat-shocked in a shaking waterbath at 42° C. for 15 minutes and 1 mM theophylline or 1 μM ATC was added to the culture. The culture was shaken at 37° C. for 3 hours before plating on MacConkey Agar. To estimate the number of cfu, aliquots were plated on LB agar 1 hour after transformation.

galK1 site = test: co-transformation of targeting gRNA plasmid with non-targeting gRNA plasmid (simulated library); settings: for # of unedited colonies carrying non-targeting gRNA plasmid: 16 unedited colonies picked, 20 ng non-targeting + 180 ng targeting plasmid, 1 mM theophylline; for percentage of edited cells: plasmid mixture 90% targeting galK1, 10% non-targeting (eGFP) gRNA
xylA gene = test: red/white screen of editing at the xylA gene; format: cell-based, E. coli; settings: 1 mM theophylline
Experimental: as §2
as §1, with “Bacterial colonies with a mutated galK* site appear white on the plates, whereas non-edited colonies appear red.” left out

T1 sequence (Q99ZW2 whole entry): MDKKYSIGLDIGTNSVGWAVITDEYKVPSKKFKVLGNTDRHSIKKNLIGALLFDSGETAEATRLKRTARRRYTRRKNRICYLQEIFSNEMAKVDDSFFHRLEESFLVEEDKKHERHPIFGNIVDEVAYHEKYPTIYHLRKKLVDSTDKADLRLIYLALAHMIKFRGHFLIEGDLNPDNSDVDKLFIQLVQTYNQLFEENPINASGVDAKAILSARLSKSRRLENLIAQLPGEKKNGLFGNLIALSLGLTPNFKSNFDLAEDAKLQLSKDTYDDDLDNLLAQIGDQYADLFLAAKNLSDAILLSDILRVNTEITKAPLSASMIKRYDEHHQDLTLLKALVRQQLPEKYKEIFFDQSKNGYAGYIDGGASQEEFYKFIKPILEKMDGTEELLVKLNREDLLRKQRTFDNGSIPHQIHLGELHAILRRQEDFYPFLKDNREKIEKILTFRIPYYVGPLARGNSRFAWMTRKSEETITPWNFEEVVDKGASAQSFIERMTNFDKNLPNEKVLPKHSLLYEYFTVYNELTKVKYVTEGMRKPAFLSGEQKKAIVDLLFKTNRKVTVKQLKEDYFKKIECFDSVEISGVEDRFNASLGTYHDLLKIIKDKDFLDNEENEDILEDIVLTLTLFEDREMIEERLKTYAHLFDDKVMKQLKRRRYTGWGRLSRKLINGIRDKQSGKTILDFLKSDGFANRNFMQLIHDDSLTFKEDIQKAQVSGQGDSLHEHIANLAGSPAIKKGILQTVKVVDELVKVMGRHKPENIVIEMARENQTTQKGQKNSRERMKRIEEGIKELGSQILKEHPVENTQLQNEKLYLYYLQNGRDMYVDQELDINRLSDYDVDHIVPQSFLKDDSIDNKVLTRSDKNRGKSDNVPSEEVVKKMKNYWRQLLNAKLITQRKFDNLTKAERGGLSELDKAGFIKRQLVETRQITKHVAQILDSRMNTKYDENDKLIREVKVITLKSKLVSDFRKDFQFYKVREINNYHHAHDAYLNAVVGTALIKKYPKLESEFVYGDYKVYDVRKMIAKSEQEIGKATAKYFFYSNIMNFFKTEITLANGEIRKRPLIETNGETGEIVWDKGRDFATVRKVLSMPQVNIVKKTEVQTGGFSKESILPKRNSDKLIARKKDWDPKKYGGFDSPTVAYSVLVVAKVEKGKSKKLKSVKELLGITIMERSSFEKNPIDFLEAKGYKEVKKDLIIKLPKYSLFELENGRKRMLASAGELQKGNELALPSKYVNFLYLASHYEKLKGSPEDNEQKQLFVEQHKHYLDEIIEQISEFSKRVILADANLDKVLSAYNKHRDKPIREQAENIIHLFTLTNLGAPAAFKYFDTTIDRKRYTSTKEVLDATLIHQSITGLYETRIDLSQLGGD

Molecule | editing of galK and xylA upon induction (in words) [1] | Kd [2] [nM] | dependence of editing efficiency on theophylline concentration and induction time (galK 1 site [3]) | apparent binding affinity to the Cas9 protein [4] | Editing Efficiency 1 mM Theo (galK 1 site [5]) [%**] | Editing Efficiency no Theo (galK 1 site [5]) [%**] | targetability of alternative galK sites (in words) [6] | editing efficiencies (MGλ9 strain) [%] | increase in number of transformants (MGλ9 strain) | # of unedited colonies carrying non-targeting gRNA plasmid (galK1 site) | percentage of edited cells (galK1 site) [%] | editing efficiency at xylA compared with galK1 (in words) (xylA gene)
Cn1c(=O)[nH]c(=O)c2nc[nH]c21 [3MX, 3-methylxanthine] | induced mostly editing of xylA and to a lesser extent galK | – | – | – | – | – | – | – | – | – | – | –
Cn1c(=O)c2[nH]cnc2n(C)c1=O [theophylline] | induced editing of the galK gene but not the xylA gene | 400 | increased with the concentration of theophylline and induction time | – | – | – | – | – | – | – | – | –
GU19: agRNA cassette GATCGGCCATAGAT, SEQ ID NO: 51 (chemistry not given here) | – | – | – | the same apparent binding affinity to the Cas9 protein as the wild type gRNA, independent of theophylline | 64 | 3 | more site-dependent, but also showed less background activity | ~80 | 10^4 fold | 6/16 | 63 | editing efficiency at xylA similar to the galK1 site used during selection
A9: agRNA cassette TGAAGGCCGCAACA, SEQ ID NO: 5 (chemistry not given here) | – | – | – | the same apparent binding affinity to the Cas9 protein as the wild type gRNA, independent of theophylline | 81 | 9 | Only one of those sites was not targetable | ~80 | 10^4 fold | 9/16 | 81 | editing efficiency at xylA similar to the galK1 site used during selection
